System: E. coli strain W3110
Assay: Synergy assays: Biolog chemical sensitivity panels with Group IB metal, coefficient of drug interaction (CDI) from relative growth
Format: cell-based
Conditions: for CDI (coefficient of drug interaction), gold + biocide: Gold (μM); for CDI (coefficient of drug interaction), copper mixed with biocide: Copper (mM) section
[1] = Gold 50 μM, biocide concentration 4 of 4, E. coli
[2] = 2nd of 3 copper concentrations (value not shown), 4th of four biocide concentrations
[3] = Gold 5 μM, biocide concentration 4 of 4, E. coli
[4] = Gold 25 μM, biocide concentration 3 of 4, E. coli
[5] = Gold 25 μM, biocide concentration 4 of 4, E. coli
[6] = Silver 0.5 μM, 4th of four biocide concentrations, E. coli
[7] = Silver 1.0 μM, 4th of four biocide concentrations, E. coli
[8] = Silver 5.0 μM, 4th of four biocide concentrations, E. coli
[9] = […], biocide concentration 3 of 4, E. coli
[10] = […], biocide concentration 4 of 4, E. coli
[11] = 1st of 3 copper concentrations (value not shown), 3rd of four biocide concentrations
[12] = 1st of 3 copper concentrations (value not shown), 4th of four biocide concentrations
[13] = 2nd of 3 copper concentrations (value not shown), 3rd of four biocide concentrations
[14] = 3rd of 3 copper concentrations (value not shown), 3rd of four biocide concentrations
[15] = 3rd of 3 copper concentrations (value not shown), 4th of four biocide concentrations
[16] = Silver 0.5 μM, 3rd of four biocide concentrations, E. coli
[17] = Silver 1.0 μM, 3rd of four biocide concentrations, E. coli
[18] = Silver 5.0 μM, 3rd of four biocide concentrations, E. coli
[19] = Gold section of Table 5, first of three gold concentrations (μM, value not given), biocide concentration 3 of 4
[20] = Gold section of Table 5, first of three gold concentrations (μM, value not given), biocide concentration 4 of 4
[21] = Gold section of Table 5, second of three gold concentrations (μM, value not given), biocide concentration 3 of 4
[22] = Gold section of Table 5, second of three gold concentrations (μM, value not given), biocide concentration 4 of 4
[23] = Gold section of Table 5, third of three gold concentrations (μM, value not given), biocide concentration 3 of 4
[24] = Gold section of Table 5, third of three gold concentrations (μM, value not given), biocide concentration 4 of 4

SMILES: N.N.N.N.N.N.N.N.N.N.N.N.N.N.[Cl-].[Cl-].[Cl-].[Cl-].[Cl-].[Cl-].[O-2].[O-2].[Ru+3].[Ru+3].[Ru+4] [ruthenium red]
- CDI (coefficient of drug interaction) (Copper (mM), 1st of 3 copper concentrations (head line not shown), biocide concentration 1 of 4, E. coli): 0.73
- CDI (coefficient of drug interaction) (Copper (mM), 1st of 3 copper concentrations (head line not shown), biocide concentration 2 of 4, E. coli): 0.60
- CDI (coefficient of drug interaction) (Copper (mM), 1st of 3 copper concentrations (head line not shown), biocide concentration 3 of 4, E. coli): 0.51
- CDI (coefficient of drug interaction) (Copper (mM), 1st of 3 copper concentrations (head line not shown), biocide concentration 4 of 4, E. coli): 0.50
- CDI (coefficient of drug interaction) (Copper (mM), 2nd of 3 copper concentrations (head line not shown), biocide concentration 1 of 4, E. coli): 0.52
- CDI (coefficient of drug interaction) (Copper (mM), 2nd of 3 copper concentrations (head line not shown), biocide concentration 2 of 4, E. coli): 0.47
- CDI (coefficient of drug interaction) (Copper (mM), 2nd of 3 copper concentrations (head line not shown), biocide concentration 3 of 4, E. coli): 0.37
- CDI (coefficient of drug interaction) (Copper (mM), 2nd of 3 copper concentrations (head line not shown), biocide concentration 4 of 4, E. coli): 0.30
- CDI (coefficient of drug interaction) (Copper (mM), 3rd of 3 copper concentrations (head line not shown), biocide concentration 1 of 4, E. coli): 0.45
- CDI (coefficient of drug interaction) (Copper (mM), 3rd of 3 copper concentrations (head line not shown), biocide concentration 2 of 4, E. coli): 0.38
- CDI (coefficient of drug interaction) (Copper (mM), 3rd of 3 copper concentrations (head line not shown), biocide concentration 3 of 4, E. coli): 0.33
- CDI (coefficient of drug interaction) (Copper (mM), 3rd of 3 copper concentrations (head line not shown), biocide concentration 4 of 4, E. coli): 0.29
- CDI (coefficient of drug interaction), gold + biocide (first of 3 gold concentrations, biocide concentration 1 of 4): 1.04
- CDI (coefficient of drug interaction), gold + biocide (first of 3 gold concentrations, biocide concentration 2 of 4): 0.94
- CDI (coefficient of drug interaction), gold + biocide (first of 3 gold concentrations, biocide concentration 3 of 4): 1.05
- CDI (coefficient of drug interaction), gold + biocide (first of 3 gold concentrations, biocide concentration 4 of 4): 1.06
- CDI (coefficient of drug interaction), gold + biocide (second of 3 gold concentrations, biocide concentration 1 of 4): 1.03
- CDI (coefficient of drug interaction), gold + biocide (second of 3 gold concentrations, biocide concentration 2 of 4): 1.02
- CDI (coefficient of drug interaction), gold + biocide (second of 3 gold concentrations, biocide concentration 3 of 4): 1.14
- CDI (coefficient of drug interaction), gold + biocide (second of 3 gold concentrations, biocide concentration 4 of 4): 1.07
- CDI (coefficient of drug interaction), gold + biocide (third of 3 gold concentrations, biocide concentration 1 of 4): 1.08
- CDI (coefficient of drug interaction), gold + biocide (third of 3 gold concentrations, biocide concentration 2 of 4): 1.05
- CDI (coefficient of drug interaction), gold + biocide (third of 3 gold concentrations, biocide concentration 3 of 4): 1.13
- CDI (coefficient of drug interaction), gold + biocide (third of 3 gold concentrations, biocide concentration 4 of 4): 1.09
- CDI (Silver 0.5 μM, biocide concentration 1 of 4): 0.78
- CDI (Silver 0.5 μM, biocide concentration 2 of 4): 0.79
- CDI (Silver 0.5 μM, biocide concentration 3 of 4): 0.75
- CDI (Silver 0.5 μM, biocide concentration 4 of 4): 0.69
- CDI (Silver 1.0 μM, biocide concentration 1 of 4): 0.87
- CDI (Silver 1.0 μM, biocide concentration 2 of 4): 0.89
- CDI (Silver 1.0 μM, biocide concentration 3 of 4): 0.83
- CDI (Silver 1.0 μM, biocide concentration 4 of 4): 0.34
- CDI (Silver 5.0 μM, biocide concentration 1 of 4): 0.68
- CDI (Silver 5.0 μM, biocide concentration 2 of 4): 0.34
- CDI (Silver 5.0 μM, biocide concentration 3 of 4): 0.38
- CDI (Silver 5.0 μM, biocide concentration 4 of 4): 0.19

SMILES: O=c1ccc2ccccc2o1 [coumarin]
- CDI (coefficient of drug interaction) [1]: Tox

SMILES: CCN(CC)C(=S)SSC(=S)N(CC)CC [disulfiram]
- CDI (coefficient of drug interaction), copper mixed with biocide [2]: Tox
- CDI (coefficient of drug interaction) (Gold 5 μM, biocide concentration 3 of 4, E. coli): Tox
- CDI (coefficient of drug interaction) [3]: Tox
- CDI (coefficient of drug interaction) [4]: Tox
- CDI (coefficient of drug interaction) [5]: Tox
- CDI (coefficient of drug interaction), silver + biocide [6]: Tox
- CDI (coefficient of drug interaction), silver + biocide [7]: Tox
- CDI (coefficient of drug interaction), silver + biocide [8]: Tox
- CDI (coefficient of drug interaction) [9]: Tox
- CDI (coefficient of drug interaction) [10]: Tox

SMILES: CCn1cc(C(=O)O)c(=O)c2cc(F)c(N3CCNCC3)cc21 [norfloxacin]
- CDI (coefficient of drug interaction) [1]: Tox

SMILES: O=C1OC(CN2CCOCC2)CN1/N=C/c1ccc([N+](=O)[O-])o1 (stereo not drawn) [furaltadone]
- CDI (coefficient of drug interaction) [1]: Tox

SMILES: N.N.N.N.N.N.[Cl-].[Cl-].[Cl-].[Co+3] [hexammine cobalt (III) chloride]
- CDI (coefficient of drug interaction), copper mixed with biocide (1st of 3 copper concentrations (value not shown), 1st of four biocide concentrations): 1.06
- CDI (coefficient of drug interaction), copper mixed with biocide [11]: 1.19
- CDI (coefficient of drug interaction), copper mixed with biocide [12]: 1.51
- CDI (coefficient of drug interaction), copper mixed with biocide (2nd of 3 copper concentrations (value not shown), 1st of four biocide concentrations): 0.93
- CDI (coefficient of drug interaction), copper mixed with biocide (2nd of 3 copper concentrations (value not shown), 2nd of four biocide concentrations): 1.05
- CDI (coefficient of drug interaction), copper mixed with biocide [13]: 1.05
- CDI (coefficient of drug interaction), copper mixed with biocide [2]: 1.59
- CDI (coefficient of drug interaction), copper mixed with biocide (3rd of 3 copper concentrations (value not shown), 1st of four biocide concentrations): 0.94
- CDI (coefficient of drug interaction), copper mixed with biocide (3rd of 3 copper concentrations (value not shown), 2nd of four biocide concentrations): 0.90
- CDI (coefficient of drug interaction), copper mixed with biocide [14]: 0.73
- CDI (coefficient of drug interaction), copper mixed with biocide [15]: 0.87
- CDI (coefficient of drug interaction) (Gold 5 μM, biocide concentration 1 of 4, E. coli): 1.09
- CDI (coefficient of drug interaction) [3]: 1.10
- CDI (coefficient of drug interaction) (Gold 25 μM, biocide concentration 1 of 4, E. coli): 1.09
- CDI (coefficient of drug interaction) [4]: 1.08
- CDI (coefficient of drug interaction) [5]: 1.25
- CDI (coefficient of drug interaction), silver + biocide (Silver 0.5 μM, 1st of four biocide concentrations, E. coli): 0.98
- CDI (coefficient of drug interaction), silver + biocide (Silver 0.5 μM, 2nd of four biocide concentrations, E. coli): 1.05
- CDI (coefficient of drug interaction), silver + biocide [16]: 0.97
- CDI (coefficient of drug interaction), silver + biocide [6]: 0.82
- CDI (coefficient of drug interaction), silver + biocide (Silver 1.0 μM, 1st of four biocide concentrations, E. coli): 0.98
- CDI (coefficient of drug interaction), silver + biocide (Silver 1.0 μM, 2nd of four biocide concentrations, E. coli): 1.03
- CDI (coefficient of drug interaction), silver + biocide [17]: 1.04
- CDI (coefficient of drug interaction), silver + biocide [7]: 0.39
- CDI (coefficient of drug interaction), silver + biocide (Silver 5.0 μM, 1st of four biocide concentrations, E. coli): 1.26
- CDI (coefficient of drug interaction), silver + biocide (Silver 5.0 μM, 2nd of four biocide concentrations, E. coli): 1.43
- CDI (coefficient of drug interaction), silver + biocide [18]: 1.00
- CDI (coefficient of drug interaction) [9]: 1.25
- CDI (coefficient of drug interaction) [10]: 1.62

SMILES: O=C(O)CI [lodoacetate]
- CDI (coefficient of drug interaction) (Gold section of Table 5, first of three gold concentrations (μM, value not given), biocide concentration 1 of 4): 0.77
- CDI (coefficient of drug interaction) (Gold section of Table 5, first of three gold concentrations (μM, value not given), biocide concentration 2 of 4): Tox
- CDI (coefficient of drug interaction) [19]: Tox
- CDI (coefficient of drug interaction) [20]: Tox
- CDI (coefficient of drug interaction) (Gold section of Table 5, second of three gold concentrations (μM, value not given), biocide concentration 1 of 4): 1.00
- CDI (coefficient of drug interaction) (Gold section of Table 5, second of three gold concentrations (μM, value not given), biocide concentration 2 of 4): Tox
- CDI (coefficient of drug interaction) [21]: Tox
- CDI (coefficient of drug interaction) [22]: Tox
- CDI (coefficient of drug interaction) (Gold section of Table 5, third of three gold concentrations (μM, value not given), biocide concentration 1 of 4): 0.88
- CDI (coefficient of drug interaction) (Gold section of Table 5, third of three gold concentrations (μM, value not given), biocide concentration 2 of 4): Tox
- CDI (coefficient of drug interaction) [23]: Tox
- CDI (coefficient of drug interaction) [24]: Tox

SMILES: CCn1cc(C(=O)O)c(=O)c2ccc(C)nc21 [Nalidixic Acid]
- CDI (coefficient of drug interaction), copper mixed with biocide [11]: Tox
- CDI (coefficient of drug interaction), copper mixed with biocide [12]: Tox
- CDI (coefficient of drug interaction), copper mixed with biocide [13]: Tox
- CDI (coefficient of drug interaction), copper mixed with biocide [2]: Tox
- CDI (coefficient of drug interaction), copper mixed with biocide [14]: Tox
- CDI (coefficient of drug interaction), copper mixed with biocide [15]: Tox
- CDI (coefficient of drug interaction) [19]: Tox
- CDI (coefficient of drug interaction) [20]: Tox
- CDI (coefficient of drug interaction) [21]: Tox
- CDI (coefficient of drug interaction) [22]: Tox
- CDI (coefficient of drug interaction) [23]: Tox
- CDI (coefficient of drug interaction) [24]: Tox
- CDI (coefficient of drug interaction), silver + biocide [16]: Tox
- CDI (coefficient of drug interaction), silver + biocide [6]: Tox
- CDI (coefficient of drug interaction), silver + biocide [17]: Tox
- CDI (coefficient of drug interaction), silver + biocide [7]: Tox
- CDI (coefficient of drug interaction), silver + biocide [18]: Tox
- CDI (coefficient of drug interaction), silver + biocide [8]: Tox
